Source: US8524691B2, “Phosphonated rifamycins and uses thereof for the prevention and treatment of bone and joint infections” (The Medicines Company, priority 2008, dated 2013)
In brackets after ≈: the same amount, converted by molar mass. Where two headings read alike, the source gives them in different places.

Columns and labels:
S. aureus ATCC 13709 [1] = experiment: microbe, parasite or virus in culture; assay type: cell-based; conditions: for Serum dependence of antibacterial activity (in words): MIC with versus without serum; for MIC: Staphylococcus aureus, ATCC13709, 18 h
Description: (§1) Susceptibility of S. aureus strains to the known antibiotics and synthesized compounds was determined by following the guidelines set by NCCLS (M26-A). Compounds were diluted two-fold serially in DMSO and transferred to cation-adjusted Mueller Hinton broth (CAMHB; Becton Dickinson). 50 μL of compounds diluted in CAMHB was mixed with 100 μL of bacteria diluted in CAMHB in 96-well microtiter plates. The final concentration of micro-organisms in the assay was 5×10^5c.f.u. per mL and the final concentration of DMSO in the assay was 1.25%. Assays were set up in duplicate and incubated at 37° C. for 18 h. The lowest concentration of compound that inhibited visible growth was reported as the minimum inhibitory concentration (MIC).
Susceptibility testing experiments were also carried out in the presence of serum. These experiments were carried out similar to the susceptibility testing with the following modifications. 75 μL of compounds diluted in CAMHB was mixed with 75 μL of bacteria diluted in 100% serum from any given source (commercial pooled mouse serum (MS) and human serum (HS), Equitech-Bio Inc.) or diluted in 8% purified human serum albumin (HSA) (Calbiochem). The final concentration of animal serum in the assay was 50% and the final concentration of purified human serum albumin in the assay was 4%; the concentrations of all other components were identical to those described for susceptibility testing.

[2] = assay type: in vitro ADME; conditions: for % Conversion (prodrug converted to parent drug after binding to bone): 24 h incubation, 37° C.
Description: Amounts of parent drug “regenerated” from the phosphonated prodrug were measured as follows. Washed bone powder-bound prodrugs from the above experiment were resuspended in 400 μL PBS+2% DMSO or in 400 μL 50% (v/v in PBS+2% DMSO) human or rat serum. The suspension was incubated overnight at 37° C., centrifuged at 13,000 rpm for 2 min and the supernatant was recovered. The amount of regenerated parent drug in the supernatant was determined by measurements using the microbiological assay that was previously described for the prodrugs themselves. The amount of prodrug was deduced from standard curves of known amounts of parent drug that were used as reference for each experiment. The amount of regenerated drug assessed by this bioassay was corroborated by MIC determination. The percentage of drug regenerated in PBS or serum after the overnight incubation (Table 2) was deduced from the difference between the amount of bound prodrug and the amount of regenerated drug (not shown).

S. aureus ATCC 13709 [3] = experiment: microbe, parasite or virus in culture; assay type: cell-based; conditions: for Minimum inhibitory concentration, S. aureus ATCC 13709: CAMHB, 37° C., 18 h; for MIC: Staphylococcus aureus, ATCC13709, 18 h, read-out: Minimum inhibitory concentration, S. aureus ATCC 13709
Description: as §1

[4] = tested on: S. aureus ATCC 13709^A, Novobiocin and Rifampicin resistant variant; experiment: Antibacterial susceptibility (MIC), NCCLS broth microdilution; assay type: cell-based; conditions: for MIC: Staphylococcus aureus, ATCC13709, read-out: Minimum inhibitory concentration, S. aureus ATCC 13709^A
Description: as §1

S. aureus ATCC 29213 = experiment: as above; assay type: cell-based; conditions: for Minimum inhibitory concentration, S. aureus ATCC 29213: CAMHB, 37° C., 18 h; for MIC: Staphylococcus aureus, ATCC29213, 18 h, read-out: Minimum inhibitory concentration, S. aureus ATCC 29213
Description: as §1

[5] = tested on: Novobiocin resistant mutant strain of S. aureus ATCC 13709; experiment: Prophylactic efficacy in rat model of S. aureus bone infection; assay type: in vivo; conditions: for Measured bacterial titer, test compound: 20 mg/kg parent drug equivalent, tibia 24 h postinfection; for Prophylactic activity in rat bone infection model (in words): 20 mg/kg, 1 day or 5 days prior to infection
Description: To determine the in vivo activity of bisphosphonated prodrugs of Rifamycin derived antibacterials in comparison to their non-bisphosphonated parents, compounds 18, 19, 48a, 59, 66, 89, 95, 102, 110, 142b and 164 and their parent drug rifabutin were used as prophylactic therapeutics in an animal model of infection. Specifically, a spontaneous Novobiocin resistant mutant strain of S. aureus ATCC 13709 (a clinical osteomyelitis isolate), was grown overnight at 37° C. in brain heart infusion broth (BHIB). After 16 h of growth, cells were subcultured into fresh BHIB and incubated for 4 to 5 h at 37° C. The cells were washed twice with phosphate-buffered saline (PBS) and resuspended in BHIB supplemented with 10% (vol./vol.) fetal bovine serum at a density of approximately 10^10 colony forming units (CFU)/ml (based upon turbidimetry). The suspension was aliquoted and a portion was used to check the CFU count. The culture was stored frozen (−80° C.) and was used without subculture. For use as an inoculum the culture was thawed, diluted in PBS and kept in an ice bath until it was used.
Animals were infected as described by O'Reilly et al. (Antimicrobial Agents and Chemotherapy (1992), 36(12): 2693-97) to generate the bone infection. Female CD rats (age, 57 to 70 days; n=5/group; Charles River, St-Constant, Canada) were anaesthetized by isofluorane before and during the surgery. Following complete induction of anesthesia, the rat was placed ventral side up and hair was shaved from the surgical site. The skin over the leg was cleaned and disinfected (proviodine-ethanol 70%). A longitudinal incision below the knee joint was made in the sagital plane. The incision was made over the bone below the “knee joint” (tibia head or condyle) but not completely extending to the ankle. A high speed drill fitted with a 2 mm bulb bit was used to drill a hole into the medullar cavity of the tibia. Rats were injected intra-tibially with 0.05 ml 5% sodium morrhuate (sclerosing agent) and then with 0.05 ml of S. aureus suspension (ca. 2×10^7 CFU/rat). The hole was sealed by applying a small amount of dry dental cement which immediately absorbs fluids and adheres to the site. The wound was closed using 3 metal skin clips. Moxifloxacin (as a positive control) was injected once at 10 mg/kg intravenously 1 h postinfection in saline, while the Rifabutin derived prodrugs (prepared in 0.9% saline) were injected at the dose indicated in Table 3 as a single intravenous bolus at different time points prior to the infection.
Infected rats were sacrificed by CO2 asphyxiation 24 h postinfection to monitor the bacterial CFU count. Infected tibiae were removed, dissected free of soft tissue, and weighed. The bones were ground, 50 mg of charcoal were added and the powder was resuspended in 5 ml 0.9% NaCl, serially diluted and processed for quantitative cultures. Treatment efficacy was measured in terms of Log viable bacteria (Log CFU per gram of bone). […] The limit of detection is 2 Log CFU. Statistical comparisons of viable bacterial counts for the different treated and untreated groups were performed with the Dunnett's multiple-comparison test. Differences were considered significant when the P value was <0.05 when comparing treated infected animals to the untreated infected ones. The doses used, the amount of time separating the treatment from the time of infection and the treatment outcomes are shown in Table 3.

[6] = single intravenous bolus 1 day prior to infection
[7] = single intravenous bolus 5 days prior to infection
[8] = read-out: Minimum inhibitory concentration, ATCC 13709 + 50% Human Serum
[9] = read-out: Minimum inhibitory concentration, ATCC 13709 + 50% Mouse Serum
[10] = read-out: Minimum inhibitory concentration, ATCC 13709 + 50% Rat Serum

Row | Structure (SMILES) | Minimum inhibitory concentration, ATCC 13709 + 50% Human Serum (S. aureus ATCC 13709 [1]) [µg/mL] | Minimum inhibitory concentration, ATCC 13709 + 50% Mouse Serum (S. aureus ATCC 13709 [1]) [µg/mL] | Minimum inhibitory concentration, ATCC 13709 + 50% Rat Serum (S. aureus ATCC 13709 [1]) [µg/mL] | Serum dependence of antibacterial activity (in words) (S. aureus ATCC 13709 [1]) | Minimum inhibitory concentration, S. aureus ATCC 13709 (S. aureus ATCC 13709 [3]) [µg/mL] | Minimum inhibitory concentration, S. aureus ATCC 13709^A [4] [µg/mL] | Minimum inhibitory concentration, S. aureus ATCC 29213 (S. aureus ATCC 29213) [µg/mL] | Measured bacterial titer, test compound [5, 6] | Measured bacterial titer, test compound [5, 7] | Prophylactic activity in rat bone infection model (in words) [5] | MIC (S. aureus ATCC 13709 [1]; [8]) [µg/mL] | MIC (S. aureus ATCC 13709 [1]; [9]) [µg/mL] | MIC (S. aureus ATCC 13709 [1]; [10]) [µg/mL] | MIC (S. aureus ATCC 13709 [3]) [µg/mL] | MIC [4] [µg/mL] | MIC (S. aureus ATCC 29213) [µg/mL] | also measured
1 | CCC(=O)OCOC(=O)N[C@@H](Cc1ccc(OCCCC(P(=O)(O)O)P(=O)(O)O)cc1)C(=O)N(C)CC(=O)O[C@@H]1[C@@H](C)[C@@H](O)[C@@H](C)[C@H](OC(C)=O)[C@H](C)[C@@H](OC)/C=C/O[C@@]2(C)Oc3c(C)c(O)c4c(c3C2=O)C2=NC3(CCN(CC(C)C)CC3)NC2=C(NC(=O)/C(C)=C\C=C\[C@@H]1C)C4=O.N.N [Compound 89] | 16 | 0.0625 | 0.0156 | significant increase in antibacterial activity in serum | 4 | >128 | 4 | 2.05 ± 0.07 Log CFU/g of bone | 3.45 ± 1.36 Log CFU/g of bone | active at 1 day and display activity similar to rifabutin at 5 days |  |  |  |  |  |  | Release of parent rifabutin from bone powder-bound prodrug (in words) [2]: regeneration is clearly accelerated by the presence of serum; % Conversion (prodrug converted to parent drug after binding to bone) ([2]; 50% Heat Inactivated Rat Serum): 0.16 ± 0.04%; % Conversion (prodrug converted to parent drug after binding to bone) ([2]; 50% Rat Serum): 0.18%; % Conversion (prodrug converted to parent drug after binding to bone) ([2]; PBS): 0.02%
2 | CCC(=O)OCOC(=O)NCC(=O)OCCN(CCCCC(P(=O)(O)O)P(=O)(O)O)CC(=O)O[C@@H]1[C@@H](C)[C@@H](O)[C@@H](C)[C@H](OC(C)=O)[C@H](C)[C@@H](OC)/C=C/O[C@@]2(C)Oc3c(C)c(O)c4c(c3C2=O)C2=NC3(CCN(CC(C)C)CC3)NC2=C(NC(=O)/C(C)=C\C=C\[C@@H]1C)C4=O [Compound 59] |  |  |  |  |  |  |  | 1.95 ± 0.06 Log CFU/g of bone |  |  | 0.0625 | 0.0312 | 0.008 | 0.125 (≈ 0.0916 µM) | > 128 | 0.125 (≈ 0.0916 µM) | Antibacterial activity (in words, from Table 1) (S. aureus ATCC 13709 [3]; S. aureus MIC): very low MICs whether in the absence or in the presence of serum
3 | CCC(=O)OCOC(=O)N(CCCC(P(=O)(O)O)P(=O)(O)O)CCOC(=O)N1C2=C3NC(=O)/C(C)=C\C=C\[C@H](C)[C@H](O)[C@@H](C)[C@@H](O)[C@@H](C)[C@H](OC(C)=O)[C@H](C)[C@@H](OC)/C=C/O[C@@]4(C)Oc5c(C)c(O)c(c(c5C4=O)C2=NC12CCN(CC(C)C)CC2)C3=O [Compound 164] | 8 | 2 | 0.25 | significant increase in antibacterial activity in serum | 4 (≈ 3.12 µM) | >128 | 4 (≈ 3.12 µM) | 5.48 ± 0.64 Log CFU/g of bone |  | ineffective at 1 day |  |  |  |  |  |  | 
4 | CCCC(=O)OCCN(CCCCC(P(=O)(O)O)P(=O)(O)O)CC(=O)O[C@@H]1[C@@H](C)[C@@H](O)[C@@H](C)[C@H](OC(C)=O)[C@H](C)[C@@H](OC)/C=C/O[C@@]2(C)Oc3c(C)c(O)c4c(c3C2=O)C2=NC3(CCN(CC(C)C)CC3)NC2=C(NC(=O)/C(C)=C\C=C\[C@@H]1C)C4=O [Compound 48a] | 8 | 2 | 0.25 | significant increase in antibacterial activity in serum | 2 (≈ 1.6 µM) | >128 | 2 (≈ 1.6 µM) | 2.53 ± 0.94 Log CFU/g of bone | 2.65 ± 0.85 Log CFU/g of bone | more potent than rifabutin at 5 days |  |  |  |  |  |  | 
5 | CO[C@H]1/C=C/O[C@@]2(C)Oc3c(C)c(O)c4c(c3C2=O)C2=NC3(CCN(CC(C)C)CC3)NC2=C(NC(=O)/C(C)=C\C=C\[C@H](C)[C@H](OC(=O)CN(CCCCC(P(=O)(O)O)P(=O)(O)O)CCNC(=O)OCc2ccc(OC(C)=O)cc2)[C@@H](C)[C@@H](O)[C@@H](C)[C@H](OC(C)=O)[C@@H]1C)C4=O [Compound 66] |  |  |  | significant increase in antibacterial activity in serum |  |  |  | 1.97 ± 0.05 Log CFU/g of bone |  |  | 4 | 0.125 | 0.008 | 4 (≈ 2.92 µM) | > 128 | 4 (≈ 2.92 µM) | 
6 | CCC(=O)OCOC(=O)N[C@@H](CCC(=O)Nc1ccc(CC(P(=O)(O)O)P(=O)(O)O)cc1)C(=O)N(C)CC(=O)O[C@@H]1[C@@H](C)[C@@H](O)[C@@H](C)[C@H](OC(C)=O)[C@H](C)[C@@H](OC)/C=C/O[C@@]2(C)Oc3c(C)c(O)c4c(c3C2=O)C2=NC3(CCN(CC(C)C)CC3)NC2=C(NC(=O)/C(C)=C\C=C\[C@@H]1C)C4=O.N.N [Compound 110] | 8 | 0.125 | 0.0156 | significant increase in antibacterial activity in serum | 8 | >128 | 8 | 1.94 ± 0.04 Log CFU/g of bone |  |  |  |  |  |  |  |  | 
